Laboratory results taken from patent US20260207602A1, “EGFR INHIBITORS” (Blueprint Medicines Corporation, priority 2022, published 2026).
pIC50: −log10 of the molar value.

What was measured:
[1] = biological target: intracellular phosphorylation of EGFR (Tyr1068) in PC-9 cells (Homo sapiens, UniProt P00533, DEL746-750); experiment: PC-9 pEGFR AlphaLISA assay; assay type: cell-based; conditions: 4 hours incubation, read-out: Phos EGFR PC9 IC50
Procedure: PC-9/A431 pEGFR AlphaLISA Assays
Inhibitory effects of compounds were evaluated in cellular assays that measure level of intracellular phosphorylation of EGFR in PC-9 (ECACC, #90071810, Milipore/Sigma) and A431 cell lines (ATCC, CRL-1555) using AlphaLISA sureFire ultra p-EGFR (Tyr1068) assay kit (PerkinElmer, ALSU-PEGFR-A50K). PC-9 cells were seeded at 3.125×10^5 cells/ml in 40 μL phenol-free DMEM supplemented with 10% FBS per well of a 384 well plate (Corning, 3764), while A431 were seeded at […] in 40 μL in phenol-free DMEM with 0.5% FBS. Cells were allowed to adhere overnight at 37° C./5% CO2. On the next day, compounds were transferred at 4-fold, 10-point serial dilution from compound source plate to cell plates using liquid handler Echo550 and were incubated at 37° C./5% CO2 for 4 hours. A431 cells were stimulated prior harvesting for 10 min with EGF at final concentration of 30 ng/ml in the incubator. Medium was removed from the plates and cells were lysed with 10 μL of 1× AlphaLISA lysis buffer (supplemented with 1× protease/phosphatase inhibitor cocktail) followed by shaking at 600 rpm for 30 minutes at room temperature. Lysates were transferred to Optiplate (Apricot designs) and 5 ul of 1× acceptor bead mix (prepared just before use) was added to each well followed by incubation at room temperature for 1.5-2 h in dark. Then 5 μL of freshly-made donor bead mix is added to each well under subdued lighting or green filters, was mixed well on the shaker and the plate was sealed and left for an overnight incubation at room temperature in dark. On the next day, the plate was read the Envision using standard AlphaLisa settings. Percent of pEGFR inhibition was plotted against log concentration of compounds to generate IC50 values.

EGFR L858R = biological target: T1, EGFR L858R (Homo sapiens, UniProt P00533, L858R); experiment: Biochemical EGFR inhibition assay (Caliper mobility shift), EGFR L858R; conditions: biochemical Caliper mobility shift assay, EGFR L858R enzyme; read-out: Enz EGFR L858R IC50
T1 construct: purchased SignalChem E10-122BG
T1 sequence (P00533 25-1210 L858R): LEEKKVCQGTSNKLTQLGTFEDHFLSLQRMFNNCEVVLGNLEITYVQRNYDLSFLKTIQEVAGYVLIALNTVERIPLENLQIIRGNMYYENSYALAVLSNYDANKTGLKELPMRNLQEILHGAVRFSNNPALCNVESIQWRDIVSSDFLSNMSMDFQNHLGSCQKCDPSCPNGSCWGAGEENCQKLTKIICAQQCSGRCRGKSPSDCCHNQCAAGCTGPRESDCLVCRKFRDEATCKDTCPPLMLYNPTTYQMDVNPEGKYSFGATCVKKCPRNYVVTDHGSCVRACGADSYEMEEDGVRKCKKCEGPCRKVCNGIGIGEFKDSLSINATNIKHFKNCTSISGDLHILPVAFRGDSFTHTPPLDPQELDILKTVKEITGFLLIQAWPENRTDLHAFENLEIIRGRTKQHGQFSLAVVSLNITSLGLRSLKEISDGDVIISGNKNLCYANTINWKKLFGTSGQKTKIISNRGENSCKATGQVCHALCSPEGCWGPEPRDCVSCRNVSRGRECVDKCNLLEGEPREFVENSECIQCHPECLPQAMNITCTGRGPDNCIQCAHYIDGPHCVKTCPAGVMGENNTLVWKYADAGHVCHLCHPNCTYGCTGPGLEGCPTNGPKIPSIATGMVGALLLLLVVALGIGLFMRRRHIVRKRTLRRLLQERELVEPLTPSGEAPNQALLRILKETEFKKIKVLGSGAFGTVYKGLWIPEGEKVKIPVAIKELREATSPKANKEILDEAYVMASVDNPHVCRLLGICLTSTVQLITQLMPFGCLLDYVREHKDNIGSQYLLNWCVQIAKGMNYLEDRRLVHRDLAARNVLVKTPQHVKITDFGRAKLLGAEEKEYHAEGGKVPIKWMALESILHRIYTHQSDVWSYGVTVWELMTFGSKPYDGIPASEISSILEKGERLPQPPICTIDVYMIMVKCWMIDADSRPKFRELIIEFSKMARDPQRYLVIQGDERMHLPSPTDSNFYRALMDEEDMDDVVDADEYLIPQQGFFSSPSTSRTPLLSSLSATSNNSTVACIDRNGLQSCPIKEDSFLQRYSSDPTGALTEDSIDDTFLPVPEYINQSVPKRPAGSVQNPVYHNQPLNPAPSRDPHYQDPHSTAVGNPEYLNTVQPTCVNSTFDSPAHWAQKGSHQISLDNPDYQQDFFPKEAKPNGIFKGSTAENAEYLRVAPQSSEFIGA
Procedure: Inhibitory effects of the compounds of the disclosure were measured in biochemical assays that measure the phosphorylation activity of EGFR enzyme phosphorylates 2.5 micromolar 5-FAM-[…]-CONH2 peptide substrate (ProfilerPro Kinase Peptide Substrate 22, PerkinElmer, Part #760366) in the presence of adenosine-5′-triphosphate (ATP) and varying concentrations of the test compound in 100 mM 2-[4-(2-hydroxyethyl)piperazin-1-yl]ethanesulfonic acid (HEPES), pH 7.5, 10 mM MgCl2, 0.015% Brij-35, 1 mM dithiothreitol (DTT), 1.0% dimehylsulfoxide (DMSO). Assays were performed at 1.0 mM ATP or at ATP Km of the EGFR enzymes. Reactions proceeded until between 10% to 20% total peptides were phosphorylated at room temperature (25° C.) and were terminated with 35 mM 2,2′,2″,2′″-(ethane-1,2-diyldinitrilo)tetraacetic acid (EDTA). Product was detected using the Caliper mobility shift detection method where the phosphorylated peptide (product) and substrate were electrophoretically separated and measured. Percent activity was plotted against log concentration of compound and points to generate an apparent IC50. The following enzyme forms of • EGFR were examples that were used in these assays: • EGFR WT (SignalChem, E10-112G) • EGFR L858R (SignalChem, E10-122BG) • EGFR (d746-750) (SignalChem, E10-122JG) • EGFR L858R C797S (SignalChem, E10-122ZG) • EGFR (d746-750) C797S (SignalChem, E10-122TG)

intracellular phosphorylation of EGFR (Tyr1068) in PC-9 cells, sequence (P00533 with tags, fused parts or gaps DEL746-750): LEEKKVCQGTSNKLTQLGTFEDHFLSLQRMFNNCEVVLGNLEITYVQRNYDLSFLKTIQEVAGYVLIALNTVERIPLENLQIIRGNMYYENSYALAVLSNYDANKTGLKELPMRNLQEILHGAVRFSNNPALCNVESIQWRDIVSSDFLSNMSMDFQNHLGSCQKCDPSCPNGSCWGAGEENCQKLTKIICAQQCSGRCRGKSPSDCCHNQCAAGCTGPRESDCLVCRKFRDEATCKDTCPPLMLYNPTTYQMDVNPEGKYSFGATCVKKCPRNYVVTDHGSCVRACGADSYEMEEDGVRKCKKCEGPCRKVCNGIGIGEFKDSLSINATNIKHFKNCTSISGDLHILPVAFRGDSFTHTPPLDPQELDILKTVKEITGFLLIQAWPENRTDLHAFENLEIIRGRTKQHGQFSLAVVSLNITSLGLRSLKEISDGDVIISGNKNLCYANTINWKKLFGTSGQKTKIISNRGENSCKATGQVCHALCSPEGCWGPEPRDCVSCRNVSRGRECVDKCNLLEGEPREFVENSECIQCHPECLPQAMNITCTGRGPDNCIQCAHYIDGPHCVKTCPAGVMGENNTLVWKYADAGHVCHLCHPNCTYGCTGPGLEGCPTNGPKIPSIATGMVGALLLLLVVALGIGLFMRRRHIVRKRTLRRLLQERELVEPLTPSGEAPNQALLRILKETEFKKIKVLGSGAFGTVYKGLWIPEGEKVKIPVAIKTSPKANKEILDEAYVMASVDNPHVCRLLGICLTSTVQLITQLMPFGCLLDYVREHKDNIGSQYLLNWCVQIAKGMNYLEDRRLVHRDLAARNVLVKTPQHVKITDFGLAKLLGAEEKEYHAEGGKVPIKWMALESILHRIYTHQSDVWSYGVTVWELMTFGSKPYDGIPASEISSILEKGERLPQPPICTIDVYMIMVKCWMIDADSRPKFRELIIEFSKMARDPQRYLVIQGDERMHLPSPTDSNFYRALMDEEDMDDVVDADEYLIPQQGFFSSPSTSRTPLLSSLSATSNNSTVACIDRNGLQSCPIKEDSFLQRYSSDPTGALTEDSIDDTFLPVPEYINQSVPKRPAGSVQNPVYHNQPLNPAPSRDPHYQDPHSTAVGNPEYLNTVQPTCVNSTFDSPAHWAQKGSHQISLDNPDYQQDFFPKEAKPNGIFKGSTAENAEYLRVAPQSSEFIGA

SMILES	pIC50 [1]	pIC50 (EGFR L858R)
Cn1cc(-c2cc(OCC3CCOC3)c3c(Nc4ccc5ncsc5c4)ncnc3c2)cn1 (single isomer, unassigned) [Example 42]	7.30 to 8.00	≥ 8.00
Cn1cc(-c2cc(O[C@@H]3CCOC[C@@H]3F)c3c(Nc4ccc5ncsc5c4)ncnc3c2)cn1 (single isomer, unassigned) [Example 44]	7.30 to 8.00	≥ 8.00
C[C@@H](Oc1cc(-c2cnn(C)c2)cc2ncnc(Nc3ccc4ncsc4c3)c12)C(F)F (single isomer, unassigned) [Example 53]		≥ 8.00
C[C@@H](Oc1cc(-c2cnn(C)c2)cc2ncnc(Nc3ccc4ncsc4c3F)c12)[C@H]1CCOC1 (single isomer, unassigned) [Example 89]		≥ 8.00
COCC[C@@H](C)Oc1cc(-c2cnn(C)c2)cc2ncnc(Nc3ccc4ncsc4c3F)c12 (single isomer, unassigned) [Example 109]		≥ 8.00
COC[C@H](C)Oc1cc(N2CCN(C(C)C)C2=O)cc2ncnc(Nc3ccc4ncsc4c3)c12 (single isomer, unassigned) [Example 119]		≥ 8.00
CN(C)C[C@@H](Oc1cc(-c2cnn(C)c2)cc2ncnc(Nc3ccc4ncsc4c3)c12)C(F)F (single isomer, unassigned) [Example 152]		≥ 8.00
COc1nn(C)cc1-c1cc(O[C@H](C)C2COC2)c2c(Nc3ccc4ncsc4c3)ncnc2c1 (single isomer, unassigned) [Example 171]		≥ 8.00
C[C@@H](Oc1cc(-c2cnn(C)c2)cc2ncnc(Nc3ccc4ncsc4c3)c12)[C@H]1CNCCO1 (single isomer, unassigned) [Example 208]		≥ 8.00
C[C@@H](Oc1cc(-c2cnn(C)c2)cc2ncnc(Nc3ccc4ncsc4c3)c12)[C@H]1CN(C)CCO1 (single isomer, unassigned) [Example 210]		≥ 8.00
C[C@@H](Oc1cc(-c2cnn(C)c2)cc2ncnc(Nc3ccc4ncsc4c3F)c12)C(=O)N(C)C (single isomer, unassigned) [Example 280]		≥ 8.00
C[C@H](Oc1cc(-c2cnn(C)c2)cc2ncnc(Nc3ccc4ncsc4c3F)c12)C(=O)N1CCOCC1 (single isomer, unassigned) [Example 283]		≥ 8.00
COc1nn(C)cc1-c1cc(O[C@@H](C)C(=O)N(C)C)c2c(Nc3ccc4ncsc4c3F)ncnc2c1 (single isomer, unassigned) [Example 288]		≥ 8.00
C[C@H](CO)Oc1cc(N2CCN(C)CC2)cc2ncnc(Nc3ccc4ncsc4c3)c12 (single isomer, unassigned) [Example 294]	7.30 to 8.00	≥ 8.00
CN1CC[C@@H](Nc2cc3c(Nc4ccc5ncsc5c4)ncnc3cc2-c2ccn(C)n2)[C@H](F)C1 (single isomer, unassigned) [Example 328]		≥ 8.00
CN1CC[C@@H](Oc2cc(-c3cnn(C)c3)cc3ncnc(Nc4ccc5ncsc5c4)c23)[C@@H](F)C1 (single isomer, unassigned) [Example 341]		≥ 8.00
CN1CC[C@H](Oc2cc(-c3cnn(C)c3)cc3ncnc(Nc4ccc5ncsc5c4)c23)[C@@H](F)C1 (single isomer, unassigned) [Example 345]		≥ 8.00
CN1C[C@H](F)[C@H](Oc2cc(-c3cnn(C)c3)cc3ncnc(Nc4ccc5ncsc5c4)c23)C1 (single isomer, unassigned) [Example 381]	7.30 to 8.00	≥ 8.00
Cn1cc(-c2cc(O[C@@H]3C[C@@H](O)[C@@H](O)C3)c3c(Nc4ccc5ncsc5c4)ncnc3c2)cn1 (single isomer, unassigned) [Example A23]	7.30 to 8.00	≥ 8.00
CN1CC[C@H](Oc2cc(-c3cnn(C)c3)cc3ncnc(Nc4ccc5ncsc5c4F)c23)C1 [Example 16, (S)-7-fluoro-N-(7-(1-methyl-1H-pyrazol-4-yl)-5-((1-methylpyrrolidin-3-yl)oxy)quinazolin-4-yl)benzo[d]thiazol-6-amine]		7.30 to 8.00

Further lines, results first:

pIC50 [1]	pIC50 (EGFR L858R)	SMILES
7.30 to 8.00	≥ 8.00	CN1CC[C@@](C)(COc2cc(-c3cnn(C)c3)cc3ncnc(Nc4ccc5ncsc5c4)c23)C1=O (single isomer, unassigned) [Example 56]
	≥ 8.00	COc1nn(C)cc1-c1cc(O[C@H](C)C2COC2)c2c(Nc3ccc4ncsc4c3F)ncnc2c1 (single isomer, unassigned) [Example 79]
	≥ 8.00	C[C@@H](Oc1cc(-c2cnn(C)c2)cc2ncnc(Nc3ccc4ncsc4c3F)c12)C1(C)COC1 (single isomer, unassigned) [Example 87]
	≥ 8.00	CC[C@@H](Oc1cc(-c2cnn(C)c2)cc2ncnc(Nc3ccc4ncsc4c3F)c12)C1COC1 (single isomer, unassigned) [Example 93]
	≥ 8.00	CC(Oc1cc(-c2cn[nH]c2)cc2ncnc(Nc3ccc4ncsc4c3)c12)C1COC1 (single isomer, unassigned) [Example 123]
	≥ 8.00	C[C@@H](Oc1cc(-c2cnn(CC(C)(C)O)c2)cc2ncnc(Nc3ccc4ncsc4c3)c12)C1COC1 (single isomer, unassigned) [Example 128]
	≥ 8.00	C[C@H](CN(C)C)Oc1cc(N2CC[C@@H](C(C)(C)O)C2)cc2ncnc(Nc3ccc4ncsc4c3)c12 (single isomer, unassigned) [Example 156]
7.30 to 8.00	≥ 8.00	COC[C@H](C)Oc1cc(N2CCN(C)CC2)cc2ncnc(Nc3ccc4ncsc4c3)c12 (single isomer, unassigned) [Example 206]
	≥ 8.00	C[C@H](CO)Oc1cc(-c2cnn(C)c2)cc2ncnc(Nc3ccc4ncsc4c3F)c12 (single isomer, unassigned) [Example 290]
	≥ 8.00	C[C@@H](Oc1cc(-c2cnn(C(C)(C)CO)c2)cc2ncnc(Nc3ccc4ncsc4c3)c12)C1COC1 (single isomer, unassigned) [Example 292]
	≥ 8.00	C[C@H](CO)n1cc(-c2cc(O[C@H](C)C3COC3)c3c(Nc4ccc5ncsc5c4)ncnc3c2)cn1 (single isomer, unassigned) [Example 298]
	≥ 8.00	CN1C[C@H](F)C[C@H](Oc2cc(-c3cnn(C)c3)cc3ncnc(Nc4ccc5ncsc5c4)c23)C1 (single isomer, unassigned) [Example 337]
	≥ 8.00	Cn1cc(-c2cc(O[C@H]3CCNC[C@@H]3F)c3c(Nc4ccc5ncsc5c4)ncnc3c2)cn1 (single isomer, unassigned) [Example 347]
	≥ 8.00	COc1nn(C)cc1-c1cc(O[C@H]2CCNC[C@@H]2F)c2c(Nc3ccc4ncsc4c3)ncnc2c1 (single isomer, unassigned) [Example 361]
	≥ 8.00	CN1CC[C@H](Nc2cc3c(Nc4ccc5ncsc5c4)ncnc3cc2-c2ccn(C)n2)[C@H](F)C1 (single isomer, unassigned) [Example A06, N4-(benzo[d]thiazol-6-yl)-N6-((3S,4R)-3-fluoro-1-methylpiperidin-4-yl)-7-(1-methyl-1H-pyrazol-3-yl)quinazoline-4,6-diamine or N4-(benzo[d]thiazol-6-yl)-N6-((3R,4S)-3-fluoro-1-methylpiperidin-4-yl)-7-(1-methyl-1H-pyrazol-3-yl)quinazoline-4,6-diamine]
7.30 to 8.00	≥ 8.00	CN1CC[C@H](Oc2cc(-c3cnn(C)c3)cc3ncnc(Nc4ccc5ncsc5c4)c23)[C@@H](O)C1 (single isomer, unassigned) [Example A36]
7.30 to 8.00	≥ 8.00	CO[C@@H]1CN(C)CC[C@H]1Oc1cc(-c2cnn(C)c2)cc2ncnc(Nc3ccc4ncsc4c3)c12 (single isomer, unassigned) [Example A44]
	≥ 8.00	Cn1cc(-c2cc(O[C@@H]3CC[C@@H]3O)c3c(Nc4ccc5ncsc5c4)ncnc3c2)cn1 (single isomer, unassigned) [Example A52]
